Test results as given in patent US10745401B2, “Condensed lactam derivative” (Sumitomo Dainippon Pharma Co., Ltd., priority 2018, dated 2020).
pEC50, pIC50, pKi: −log10 of the molar value.

How the values were obtained:
human 5-HT1A receptor [1] = target: T1, human 5-HT1A receptor (Homo sapiens (Human), UniProt P08908); experiment: Test 1: binding activity for human 5-HT1A receptor ([3H]8-OH-DPAT, CHO cell membrane fraction)
Procedure: (§1) Test 1: Evaluation of Binding Activity for Human 5-HT1A Receptor, Human 5-HT2A Receptor, and Human D2 Receptor
(§2) Binding affinity of the present compound for human 5-HT1A receptor, human 5-HT2A receptor, and human D2 receptor was measured by the following procedures.
(§3) Each mixture was incubated at room temperature for 60 minutes. Then, the mixture was added quickly on a glassfiber filter plate (Multiscreen FB, Millipore, Inc.) coated with 0.3% aqueous polyethylenimine, and vacuum-filtered. Radioactivity remaining on the filter was measured with a liquid scintillation counter (PerkinElmer, Inc.). Binding inhibition rate was calculated from the following formula.
IC50 value was calculated by Hill analysis (Physiology, 1910, 40, 190-200). Ki of each compound was calculated from the following formula. Binding inhibition constant (Ki)=IC50/(1+S/Kd) wherein S is concentration of ligand; Kd is a binding dissociation constant of ligand to membrane, which is calculated from a saturated binding experiment conducted with the same cell membrane. A small Ki value means strong binding ability to a receptor.

human D2 receptor = human D2 receptor (Homo sapiens (Human), UniProt P14416); experiment: Test 1: binding activity for human D2 receptor ([3H]Spiperone, CHO cell membrane fraction); conditions: human D2 receptor, [3H]Spiperone
human D2 receptor, sequence (P14416 whole entry): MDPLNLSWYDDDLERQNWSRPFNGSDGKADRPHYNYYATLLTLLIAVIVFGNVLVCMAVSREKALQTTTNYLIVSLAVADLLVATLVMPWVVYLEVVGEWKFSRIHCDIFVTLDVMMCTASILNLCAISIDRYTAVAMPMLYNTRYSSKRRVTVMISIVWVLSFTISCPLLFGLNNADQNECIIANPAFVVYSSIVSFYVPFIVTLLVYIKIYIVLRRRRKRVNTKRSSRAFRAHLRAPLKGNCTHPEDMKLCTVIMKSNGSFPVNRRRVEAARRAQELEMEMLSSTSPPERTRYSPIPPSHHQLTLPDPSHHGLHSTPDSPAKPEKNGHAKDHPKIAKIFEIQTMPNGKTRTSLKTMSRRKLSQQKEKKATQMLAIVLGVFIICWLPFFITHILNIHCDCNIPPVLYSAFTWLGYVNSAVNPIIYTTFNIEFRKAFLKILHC
Procedure: as §1, §2, §3
Ki of each compound was calculated from the following formula. Binding inhibition constant (Ki)=IC50/(1+S/Kd) wherein S is concentration of ligand; Kd is a binding dissociation constant of ligand to membrane, which is calculated from a saturated binding experiment conducted with the same cell membrane. A small Ki value means strong binding ability to a receptor.

human 5-HT1A receptor [2] = target: T1, human 5-HT1A receptor; experiment: Test 2: agonist activity for human 5-HT1A receptor ([35S]GTPγS binding); type: biochemical; conditions: for pEC50: [35S]GTPγS binding, concentration at which half the activity of Emax was obtained; for Emax at 10 µM: agonist activity in the presence of 10 μM of compound, relative to 100 μmol/L 5-HT
Procedure: Test 2: Evaluation of Agonist Activity for Human 5-HT1A Receptor
CHO cell membrane fraction in which human 5-HT1A receptor was expressed as used in Test 1 was purchased. To a buffer containing guanosine diphosphate were added a test compound dissolved in DMSO, each receptor membrane sample diluted with buffer, and [^35S] Guanosine 5′-O-[gamma-thio]triphosphate (GTPγS). The mixture was incubated at room temperature for 60 minutes. Then, the mixture was added quickly on a glassfiber filter plate (Multiscreen FB, Millipore, Inc.), and vacuum-filtered. Radioactivity remaining on the […] was measured with a liquid scintillation counter. Agonist activity was calculated from the following formula.

[3] = Test 4: metabolic stability test in human hepatic microsome; type: in vitro ADME; conditions: 0.1 mg/mL microsome, 0.1 μmol/L compound, 37° C., 30 minutes
Procedure: Test 4: Metabolic Stability Test in Human Hepatic Microsome
The stability of the present compound in human hepatic microsome metabolism was evaluated as mentioned below. Human hepatic microsome was obtained from Xenontech. Human hepatic microsome, NADPH, and each test compound were mixed in 25 mmol/L phosphate buffer solution (pH 7.4) to reach the following concentrations as shown below, and the mixture was incubated at 37° C. for 30 minutes. • Human hepatic microsome: 0.1 mg/mL • NAPDH: 3.2 mmol/L • Test compound: 0.1 μmol/L
The residual ratio of the test compound in each sample after 30 minutes was measured by LC-MS, and the metabolic stability in human hepatic microsome was calculated from the following formula. Metabolic stability in human hepatic microsome (mL/min/mg protein)=−LN (residual ratio)/30/0.1

hERG channel = hERG channel (Homo sapiens (Human), UniProt Q12809); experiment: Test 6-1: inhibitory activity for hERG channel (auto patch clamp, Qpatch); type: cell-based; conditions: whole cell auto patch clamp, hERG-CHO cells; read-out: hERG inhibition IC50
hERG channel, sequence (Q12809 whole entry): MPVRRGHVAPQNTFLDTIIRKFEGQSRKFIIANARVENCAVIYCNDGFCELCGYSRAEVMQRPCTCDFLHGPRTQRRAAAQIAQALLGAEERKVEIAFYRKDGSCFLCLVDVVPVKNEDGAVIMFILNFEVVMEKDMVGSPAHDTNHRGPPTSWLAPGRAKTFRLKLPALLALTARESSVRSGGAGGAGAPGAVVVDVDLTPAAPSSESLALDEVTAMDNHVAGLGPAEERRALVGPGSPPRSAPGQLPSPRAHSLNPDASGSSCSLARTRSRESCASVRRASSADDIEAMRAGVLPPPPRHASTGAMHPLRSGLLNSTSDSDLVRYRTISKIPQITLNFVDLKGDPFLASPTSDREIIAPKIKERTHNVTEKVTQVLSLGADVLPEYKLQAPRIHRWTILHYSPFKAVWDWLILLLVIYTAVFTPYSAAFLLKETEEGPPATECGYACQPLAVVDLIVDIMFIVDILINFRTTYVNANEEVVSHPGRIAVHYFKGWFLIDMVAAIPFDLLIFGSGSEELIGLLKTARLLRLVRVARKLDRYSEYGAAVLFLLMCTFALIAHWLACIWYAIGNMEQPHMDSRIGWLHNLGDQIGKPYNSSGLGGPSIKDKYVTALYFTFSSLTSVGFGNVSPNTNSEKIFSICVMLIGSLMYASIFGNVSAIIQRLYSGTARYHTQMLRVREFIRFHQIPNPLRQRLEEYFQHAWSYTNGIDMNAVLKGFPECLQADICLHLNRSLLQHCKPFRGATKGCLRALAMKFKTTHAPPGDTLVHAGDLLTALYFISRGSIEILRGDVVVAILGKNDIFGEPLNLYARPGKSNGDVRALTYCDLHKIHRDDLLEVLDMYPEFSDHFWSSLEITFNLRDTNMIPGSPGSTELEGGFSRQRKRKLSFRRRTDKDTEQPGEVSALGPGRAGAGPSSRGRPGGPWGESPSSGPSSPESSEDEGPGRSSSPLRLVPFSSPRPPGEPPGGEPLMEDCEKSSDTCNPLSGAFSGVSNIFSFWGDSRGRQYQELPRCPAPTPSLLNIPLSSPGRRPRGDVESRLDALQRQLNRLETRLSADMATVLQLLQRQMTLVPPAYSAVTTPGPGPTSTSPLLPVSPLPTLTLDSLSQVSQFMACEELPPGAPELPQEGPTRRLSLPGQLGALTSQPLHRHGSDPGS
Procedure: Test 6-1: Evaluation of Inhibitory Activity for hERG Channel
Inhibitory activity of the present compound for hERG channel was measured by whole cell patch clamp method with an auto patch clamp system using CHO cells in which hERG channel involved in human rapidly activating delayed rectifier potassium current (IKr) was forcibly expressed.
hERG-CHO cells purchased from ChanTest Cop. were cultured in a CO2 incubator at 37° C., and dissociated from a flask with trypsin shortly before the measurement of hERG current, to prepare a cell suspension.
Extracellular fluid: 2 mmol/L CaCl2, 1 mmol/L MgCl2, 10 mmol/L HEPES, 4 mmol/L KCl, 145 mmol/L NaCl, 10 mmol/L Glucose
Intracellular fluid: 5.4 mmol/L CaCl2, 1.8 mmol/L MgCl2, 10 mmol/L HEPES, 31 mmol/L KOH, 10 mmol/L EGTA, 120 mmol/L KCl, 4 mmol/L Na2-ATP
Test compound solution: Test compound was dissolved in DMSO to reach the concentration of 2 mmol/L or 20 mmol/L, in order to prepare a test compound solution. […] (Measurement of Current Value and Data Analysis)
The cell suspension, the extracellular fluid, the intracellular fluid, and the measurement plate were set in the auto patch clamp system, and hERG current was measured by whole cell patch clamp method. […] Each pulse interval was 15 seconds. The data analysis was carried out with Qpatch Assay Software (Biolin Scientific). The test was carried out by applying incrementally 4 concentrations of each test compound, and the average of the maximum peak tail currents which were obtained from the last 3 stimulations in each concentration was determined as the evaluated data. Based on the current inhibition rate for a pre-applied current at each concentration of each test compound, IC50 value was calculated by Hill equation with the software.

T1 sequence (P08908 whole entry): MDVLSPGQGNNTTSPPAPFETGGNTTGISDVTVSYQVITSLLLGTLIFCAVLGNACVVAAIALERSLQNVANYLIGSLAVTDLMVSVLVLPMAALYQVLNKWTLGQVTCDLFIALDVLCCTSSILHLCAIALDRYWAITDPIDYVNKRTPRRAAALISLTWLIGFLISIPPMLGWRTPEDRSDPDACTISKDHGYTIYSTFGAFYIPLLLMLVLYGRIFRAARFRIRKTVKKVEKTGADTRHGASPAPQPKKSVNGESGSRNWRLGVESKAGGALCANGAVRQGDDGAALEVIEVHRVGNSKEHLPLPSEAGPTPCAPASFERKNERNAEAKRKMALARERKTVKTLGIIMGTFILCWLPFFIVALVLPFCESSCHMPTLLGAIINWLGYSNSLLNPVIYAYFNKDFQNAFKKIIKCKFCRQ

| SMILES | pKi (human 5-HT1A receptor [1]) | pKi (human D2 receptor) | pEC50 (human 5-HT1A receptor [2]) | Emax at 10 µM (human 5-HT1A receptor [2]) [%] | Metabolic stability in human hepatic microsome [3] [mL/min/mg protein] | pIC50 (hERG channel) |
| --- | --- | --- | --- | --- | --- | --- |
| O=c1c2cnc(C(F)(F)F)cc2ccn1CCN1CCC(c2noc3ccccc23)CC1 [Example 84] | – | 6.02 | – | 59 | – | – |
| CC(CN1CCC(c2noc3cc(F)ccc23)CC1)N1CCc2cccnc2C1=O (centres unmarked) [Example 122] | 7.62 | 6.27 | 6.92 | 23 | <0.05 | – |
| Cc1ccc2c(n1)C(=O)N(CCN1CCC(c3noc4ccccc34)CC1)CC2 [Example 187] | – | – | – | – | <0.05 | – |
| Cn1cc2c(n1)CCN(CCN1CCC(c3noc4ccccc34)CC1)C2=O [Example 17] | – | 6.16 | – | 52 | <0.01 | 6.00 |
| Cc1cc2c(cn1)C(=O)N(CCN1CCN(c3noc4ccccc34)CC1)CC2(C)C [Example 86] | 8.00 | 5.92 | 7.80 | 51 | – | – |
| O=c1c2cnc(C(F)(F)F)cc2ccn1CCN1CCN(c2nsc3ccccc23)CC1 [Example 172] | 8.48 | 6.42 | 8.09 | 72 | – | – |
| Cc1ccc2c(C3CCN(CCN4CCc5cccnc5C4=O)CC3)noc2c1 [Example 118] | 7.14 | 6.56 | 6.26 | 5 | – | – |
| Cc1ccc2c(n1)C(=O)N(CCN1CCC(c3noc4ccccc34)CC1)CC2 [Example 186] | – | – | – | – | 0.095 | – |
| O=C1c2cccnc2CCN1CCN1CCC(c2noc3ccccc23)CC1 [Example 128] | 7.08 | 6.20 | 7.44 | 33 | <0.05 | – |
| Cc1ncc2c(=O)n(CCN3CCC(c4noc5ccccc45)CC3)ccc2n1 [Example 194, 6-{2-[4-(1,2-Benzoisoxazol-3-yl)piperidin-1-yl]ethyl}-2-methylpyrido[4,3-d]pyrimidin-5(6H)-one] | – | – | – | – | <0.05 | 5.31 |
| O=C1c2ncccc2CCC1CCN1CCN(c2noc3cc(F)ccc23)CC1 (centres unmarked) [Example 143] | 7.58 | 6.40 | 5.98 | 31 | – | 6.10 |
| Cn1nc(Br)c2c1CCN(CCN1CCC(c3noc4ccccc34)CC1)C2=O [Example 70] | 7.85 | 6.06 | 7.10 | 50 | – | – |
| Cn1nc2c(c1Br)C(=O)N(CCN1CCC(c3noc4ccccc34)CC1)CC2 [Example 74] | 8.46 | 6.68 | 8.35 | 51 | – | – |
| Cn1nc2c(c1Br)C(=O)N(CCN1CCN(c3nsc4ccccc34)CC1)CC2 [Example 73] | 9.01 | 6.63 | – | – | – | – |

Further lines, with some results ahead:

| pKi (human 5-HT1A receptor [1]) | pKi (human D2 receptor) | pEC50 (human 5-HT1A receptor [2]) | Emax at 10 µM (human 5-HT1A receptor [2]) [%] | Metabolic stability in human hepatic microsome [3] [mL/min/mg protein] | SMILES | pIC50 (hERG channel) |
| --- | --- | --- | --- | --- | --- | --- |
| 6.69 | 6.67 | 5.21 | 17 | <0.05 | O=C1c2cnn(C3CC3)c2CCN1CCN1CCC(c2noc3ccccc23)CC1 [Example 161] | – |
| – | – | – | 50 | 0.064 | O=c1c2ncccc2ccn1CCN1CCN(c2nsc3ccccc23)CC1 [Example 8] | 5.70 |
| – | – | – | 16 | <0.05 | O=C1c2cccnc2CCN1CCN1CCN(c2noc3ccccc23)CC1 [Example 153, 6-{2-[4-(1,2-Benzoisoxazol-3-yl)piperazin-1-yl]ethyl}-7,8-dihydro-1,6-naphthyridin-5(6H)-one] | 5.15 |
| 8.20 | 5.16 | 7.06 | 58 | – | O=C1c2[nH]cnc2CCCN1CCN1CCN(c2nsc3ccccc23)CC1 [Example 100, 5-{2-[4-(1,2-Benzoisothiazol-3-yl)piperazin-1-yl]ethyl}-5,6,7,8-tetrahydroimidazo[4,5-c]azepin-4(3H)-one] | – |
| – | 6.24 | – | 37 | <0.01 | Cn1cc2c(n1)C(=O)N(CCN1CCC(c3noc4ccccc34)CC1)CCC2 [Example 48] | 5.92 |
| – | < 5.00 | – | 53 | <0.05 | O=C1c2nc(Cl)ccc2CCN1CCN1CCN(c2noc3ccccc23)CC1 [Example 144] | – |
| 8.58 | 6.52 | 8.13 | 67 | – | CCc1nc2c(o1)C(=O)N(CCN1CCN(c3nsc4ccccc34)CC1)CC2 [Example 71] | – |
| – | 6.22 | – | 60 | <0.01 | Cn1ccc2c1CCCN(CCN1CCN(c3noc4ccccc34)CC1)C2=O [Example 109, 5-{2-[4-(1,2-Benzoisoxazol-3-yl)piperazin-1-yl]ethyl}-1-methyl-5,6,7,8-tetrahydropyrrolo[3,2-c]azepin-4 (H)-one] | 4.95 |
| 8.41 | 6.98 | 7.19 | 35 | – | CC1(C)CN(CCN2CCC(c3noc4cc(F)ccc34)CC2)C(=O)c2ncccc21 [Example 119] | – |
| – | 6.07 | – | 38 | 0.056 | O=C1c2oc(C3CC3)nc2CCN1CCN1CCC(c2noc3ccccc23)CC1 [Example 68] | > 6.57 |
| 7.35 | 5.72 | 7.20 | 44 | – | O=C1c2cn[nH]c2CCN1CCN1CCN(c2nsc3ccccc23)CC1 [Example 169] | – |
